Tests used:
Assay in all cases: relative viability (nuclei count vs DMSO), 5 days (fraction); higher = more cells survive
NCI-H2085 = test system: NCI-H2085
How it was run: (§1)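 Dosing by pin tool came one day after lung cancer cell lines were seeded in 1536-well plates, using either one drug or a fixed anchor-drug dose plus five library-drug doses (not always all listed) in √10 steps. After 5 days, nuclei were counted on 4× images. Relative viability is treated-well nuclei count divided by vehicle-well nuclei count, and values are medians of duplicate plates.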

H3255 = test system: H3255
How it was run: as §1

COR-L23 = test system: COR-L23
How it was run: as §1

NCI-H1563 = test system: NCI-H1563
How it was run: as §1

HCC-827 = test system: HCC-827
How it was run: as §1

NCI-H2405 = test system: NCI-H2405
How it was run: as §1

NCI-H650 = test system: NCI-H650
How it was run: as §1

EPLC-272H = test system: EPLC-272H
How it was run: as §1

NCI-H2087 = test system: NCI-H2087
How it was run: as §1

NCI-H2023 = test system: NCI-H2023
How it was run: as §1

NCI-H520 = test system: NCI-H520
How it was run: as §1

ChaGo-K-1 = test system: ChaGo-K-1
How it was run: as §1

LCLC-103H = test system: LCLC-103H
How it was run: as §1

EMC-BAC-2 = test system: EMC-BAC-2
How it was run: as §1

NCI-H838 = test system: NCI-H838
How it was run: as §1

HCC-44 = test system: HCC-44
How it was run: as §1

NCI-H1651 = test system: NCI-H1651
How it was run: as §1

LU99A = test system: LU99A
How it was run: as §1

Q: How did the relative viability (NCI-H2085; first compound 0.005 µM) turn out when `COc1cc2nccc(Oc3ccc(NC(=O)Nc4cc(C)on4)c(Cl)c3)c2cc1OC` [Tivozanib] + CC(C)C[C@H](NC(=O)[C@H](Cc1ccccc1)NC(=O)c1cnccn1)B(O)O [Bortezomib] (partner 0.002 µM) was run?
A: The relative viability was 1.02.

Q: And the relative viability (NCI-H2085; first compound 0.01581 µM)?
A: Its relative viability is 1.1.

Q: What about the relative viability (NCI-H2085; first compound 0.05 µM) of the same molecule?
A: Its relative viability is 1.07.

Q: And the relative viability (NCI-H2085; first compound 0.1581 µM)?
A: Its relative viability is 1.04.

Q: And the relative viability (NCI-H2085; first compound 0.5 µM)?
A: The relative viability was 0.846.

Q: And the relative viability (H3255; first compound 0.005 µM)?
A: Its relative viability is 0.739.

Q: What about the relative viability (H3255; first compound 0.01581 µM) of the same molecule?
A: The relative viability was 0.823.

Q: What about the relative viability (H3255; first compound 0.05 µM) of the same molecule?
A: Its relative viability is 0.795.

Q: And the relative viability (H3255; first compound 0.1581 µM)?
A: Its relative viability is 0.582.

Q: What about the relative viability (H3255; first compound 0.5 µM) of the same molecule?
A: Its relative viability is 0.697.

Q: And the relative viability (COR-L23; first compound 0.005 µM)?
A: The relative viability was 0.88.

Q: And the relative viability (COR-L23; first compound 0.01581 µM)?
A: The relative viability was 0.931.

Q: And the relative viability (COR-L23; first compound 0.05 µM)?
A: Its relative viability is 1.13.

Q: What about the relative viability (COR-L23; first compound 0.1581 µM) of the same molecule?
A: The relative viability was 1.01.

Q: And the relative viability (COR-L23; first compound 0.5 µM)?
A: The relative viability was 0.869.

Q: What about the relative viability (NCI-H1563; first compound 0.005 µM) of the same molecule?
A: Its relative viability is 0.766.

Q: And the relative viability (NCI-H1563; first compound 0.01581 µM)?
A: The relative viability was 0.964.

Q: What about the relative viability (NCI-H1563; first compound 0.05 µM) of the same molecule?
A: The relative viability was 0.896.

Q: What about the relative viability (NCI-H1563; first compound 0.1581 µM) of the same molecule?
A: Its relative viability is 0.776.

Q: What about the relative viability (NCI-H1563; first compound 0.5 µM) of the same molecule?
A: Its relative viability is 0.829.

Q: And the relative viability (HCC-827; first compound 0.005 µM)?
A: The relative viability was 0.981.

Q: And the relative viability (HCC-827; first compound 0.01581 µM)?
A: Its relative viability is 1.01.

Q: And the relative viability (HCC-827; first compound 0.05 µM)?
A: Its relative viability is 1.13.

Q: What about the relative viability (HCC-827; first compound 0.1581 µM) of the same molecule?
A: Its relative viability is 1.08.

Q: And the relative viability (HCC-827; first compound 0.5 µM)?
A: The relative viability was 1.03.

Q: And the relative viability (NCI-H2405; first compound 0.005 µM)?
A: The relative viability was 0.87.

Q: What about the relative viability (NCI-H2405; first compound 0.01581 µM) of the same molecule?
A: Its relative viability is 1.01.

Q: What about the relative viability (NCI-H2405; first compound 0.05 µM) of the same molecule?
A: Its relative viability is 1.05.

Q: What about the relative viability (NCI-H2405; first compound 0.1581 µM) of the same molecule?
A: Its relative viability is 1.02.

Q: What about the relative viability (NCI-H2405; first compound 0.5 µM) of the same molecule?
A: Its relative viability is 0.886.

Q: And the relative viability (NCI-H650; first compound 0.005 µM)?
A: The relative viability was 0.447.

Q: And the relative viability (NCI-H650; first compound 0.01581 µM)?
A: The relative viability was 0.956.

Q: And the relative viability (NCI-H650; first compound 0.05 µM)?
A: The relative viability was 0.833.

Q: And the relative viability (NCI-H650; first compound 0.1581 µM)?
A: The relative viability was 0.579.

Q: What about the relative viability (NCI-H650; first compound 0.5 µM) of the same molecule?
A: Its relative viability is 0.497.

Q: And the relative viability (EPLC-272H; first compound 0.005 µM)?
A: The relative viability was 0.967.

Q: And the relative viability (EPLC-272H; first compound 0.01581 µM)?
A: The relative viability was 0.856.

Q: And the relative viability (EPLC-272H; first compound 0.05 µM)?
A: The relative viability was 0.949.

Q: What about the relative viability (EPLC-272H; first compound 0.1581 µM) of the same molecule?
A: The relative viability was 0.727.

Q: And the relative viability (EPLC-272H; first compound 0.5 µM)?
A: Its relative viability is 0.676.

Q: And the relative viability (NCI-H2087; first compound 0.005 µM)?
A: The relative viability was 0.644.

Q: And the relative viability (NCI-H2087; first compound 0.01581 µM)?
A: The relative viability was 0.919.

Q: What about the relative viability (NCI-H2087; first compound 0.05 µM) of the same molecule?
A: Its relative viability is 0.842.

Q: What about the relative viability (NCI-H2087; first compound 0.1581 µM) of the same molecule?
A: The relative viability was 0.77.

Q: And the relative viability (NCI-H2087; first compound 0.5 µM)?
A: Its relative viability is 0.739.

Q: And the relative viability (NCI-H2023; first compound 0.005 µM)?
A: Its relative viability is 0.909.

Q: And the relative viability (NCI-H2023; first compound 0.01581 µM)?
A: The relative viability was 1.07.

Q: And the relative viability (NCI-H2023; first compound 0.05 µM)?
A: Its relative viability is 1.

Q: And the relative viability (NCI-H2023; first compound 0.1581 µM)?
A: The relative viability was 0.853.

Q: And the relative viability (NCI-H2023; first compound 0.5 µM)?
A: Its relative viability is 0.965.

Q: What about the relative viability (NCI-H520; first compound 0.005 µM) of the same molecule?
A: Its relative viability is 0.575.

Q: What about the relative viability (NCI-H520; first compound 0.01581 µM) of the same molecule?
A: Its relative viability is 0.693.

Q: What about the relative viability (NCI-H520; first compound 0.05 µM) of the same molecule?
A: Its relative viability is 0.645.

Q: And the relative viability (NCI-H520; first compound 0.1581 µM)?
A: Its relative viability is 0.519.

Q: And the relative viability (NCI-H520; first compound 0.5 µM)?
A: The relative viability was 0.605.

Q: What about the relative viability (ChaGo-K-1; first compound 0.005 µM) of the same molecule?
A: Its relative viability is 0.907.

Q: What about the relative viability (ChaGo-K-1; first compound 0.01581 µM) of the same molecule?
A: The relative viability was 1.08.

Q: And the relative viability (ChaGo-K-1; first compound 0.05 µM)?
A: The relative viability was 1.

Q: What about the relative viability (ChaGo-K-1; first compound 0.1581 µM) of the same molecule?
A: The relative viability was 0.969.

Q: What about the relative viability (ChaGo-K-1; first compound 0.5 µM) of the same molecule?
A: The relative viability was 0.935.

Q: And the relative viability (LCLC-103H; first compound 0.005 µM)?
A: Its relative viability is 0.964.

Q: And the relative viability (LCLC-103H; first compound 0.01581 µM)?
A: The relative viability was 1.01.

Q: And the relative viability (LCLC-103H; first compound 0.05 µM)?
A: The relative viability was 1.21.

Q: What about the relative viability (LCLC-103H; first compound 0.1581 µM) of the same molecule?
A: The relative viability was 1.04.

Q: What about the relative viability (LCLC-103H; first compound 0.5 µM) of the same molecule?
A: The relative viability was 0.967.

Q: And the relative viability (EMC-BAC-2; first compound 0.005 µM)?
A: Its relative viability is 1.05.

Q: And the relative viability (EMC-BAC-2; first compound 0.01581 µM)?
A: Its relative viability is 1.07.

Q: And the relative viability (EMC-BAC-2; first compound 0.05 µM)?
A: The relative viability was 1.1.

Q: And the relative viability (EMC-BAC-2; first compound 0.1581 µM)?
A: The relative viability was 0.769.

Q: And the relative viability (EMC-BAC-2; first compound 0.5 µM)?
A: Its relative viability is 1.08.

Q: And the relative viability (NCI-H838; first compound 0.005 µM)?
A: Its relative viability is 0.939.

Q: What about the relative viability (NCI-H838; first compound 0.01581 µM) of the same molecule?
A: Its relative viability is 0.877.

Q: What about the relative viability (NCI-H838; first compound 0.05 µM) of the same molecule?
A: Its relative viability is 0.924.

Q: What about the relative viability (NCI-H838; first compound 0.5 µM) of the same molecule?
A: The relative viability was 0.723.

Q: What about the relative viability (HCC-44; first compound 0.005 µM) of the same molecule?
A: Its relative viability is 0.895.

Q: And the relative viability (HCC-44; first compound 0.01581 µM)?
A: The relative viability was 0.809.

Q: And the relative viability (HCC-44; first compound 0.05 µM)?
A: Its relative viability is 0.92.

Q: What about the relative viability (HCC-44; first compound 0.1581 µM) of the same molecule?
A: The relative viability was 0.864.

Q: What about the relative viability (HCC-44; first compound 0.5 µM) of the same molecule?
A: Its relative viability is 0.833.

Q: And the relative viability (NCI-H1651; first compound 0.005 µM)?
A: The relative viability was 0.895.

Q: What about the relative viability (NCI-H1651; first compound 0.01581 µM) of the same molecule?
A: The relative viability was 0.985.

Q: And the relative viability (NCI-H1651; first compound 0.05 µM)?
A: The relative viability was 1.02.

Q: And the relative viability (NCI-H1651; first compound 0.1581 µM)?
A: The relative viability was 0.865.

Q: What about the relative viability (NCI-H1651; first compound 0.5 µM) of the same molecule?
A: The relative viability was 0.986.

Q: What about the relative viability (LU99A; first compound 0.005 µM) of the same molecule?
A: Its relative viability is 1.15.

Q: And the relative viability (LU99A; first compound 0.01581 µM)?
A: The relative viability was 1.07.

Q: What about the relative viability (LU99A; first compound 0.05 µM) of the same molecule?
A: Its relative viability is 1.29.

Q: What about the relative viability (LU99A; first compound 0.5 µM) of the same molecule?
A: Its relative viability is 1.06.

Reference: the supplement of paper PMC10307832
